The supplement of paper PMC9663587

Assays:
Volasertib/BI6727 = compound: CC[C@@H]1C(=O)N(C)c2cnc(Nc3ccc(C(=O)N[C@H]4CC[C@H](N5CCN(CC6CC6)CC5)CC4)cc3OC)nc2N1C(C)C [Volasertib/BI6727]
Buparlisib/NVP-BKM120 = compound: Nc1cc(C(F)(F)F)c(-c2cc(N3CCOCC3)nc(N3CCOCC3)n2)cn1 [Buparlisib/NVP-BKM120]
BSJ-01-175 = compound: CN(C)C/C=C/C(=O)Nc1ccc(O[C@@H]2CCC[C@@H](Nc3ncc(Cl)c(-c4c[nH]c5ccccc45)n3)C2)cc1 [BSJ-01-175]
Alpelisib/BYL719 = compound: Cc1nc(NC(=O)N2CCC[C@H]2C(N)=O)sc1-c1ccnc(C(C)(C)C(F)(F)F)c1 [Alpelisib/BYL719]
AZD6738 = compound: C[C@@H]1COCCN1c1cc(C2([S@](C)(=N)=O)CC2)nc(-c2cc[nH]c3nccc2-3)n1 [AZD6738]
INK128/MLN0128 = compound: CC(C)n1nc(-c2ccc3oc(N)nc3c2)c2c(N)ncnc21 [INK128/MLN0128]
[1] = compound: CCN1CCN(Cc2ccc(Nc3ncc(F)c(-c4cc(F)c5nc(C)n(C(C)C)c5c4)n3)nc2)CC1
AZD2014 = compound: CNC(=O)c1cccc(-c2ccc3c(N4CCOC[C@@H]4C)nc(N4CCOC[C@@H]4C)nc3n2)c1 [AZD2014]
AZD7762 = compound: NC(=O)Nc1cc(-c2cccc(F)c2)sc1C(=O)N[C@H]1CCCNC1 [AZD7762]
Taselisib/GDC0032 = compound: Cc1nc(-c2cn3c(n2)-c2ccc(-c4cnn(C(C)(C)C(N)=O)c4)cc2OCC3)n(C(C)C)n1 [Taselisib/GDC0032]
Rucaparib = compound: CNCc1ccc(-c2[nH]c3cc(F)cc4c3c2CCNC4=O)cc1 [Rucaparib]
senexin b = compound: CN1CCN(C(=O)c2ccc3cc(CCNc4ncnc5ccc(C#N)cc45)ccc3c2)CC1 [senexin b]
THZ531 = compound: CN(C)C/C=C/C(=O)Nc1ccc(C(=O)N2CCC[C@@H](Nc3ncc(Cl)c(-c4c[nH]c5ccccc45)n3)C2)cc1 [THZ531]
THZ1 = compound: CN(C)C/C=C/C(=O)Nc1ccc(C(=O)Nc2cccc(Nc3ncc(Cl)c(-c4c[nH]c5ccccc45)n3)c2)cc1 [THZ1]
Luminespib/NVP-AUY922 = compound: CCNC(=O)c1noc(-c2cc(C(C)C)c(O)cc2O)c1-c1ccc(CN2CCOCC2)cc1 [Luminespib/NVP-AUY922]
Dasatinib = compound: Cc1nc(Nc2ncc(C(=O)Nc3c(C)cccc3Cl)s2)cc(N2CCN(CCO)CC2)n1 [Dasatinib]
[2] = compound: CCCCOc1c(C(=O)c2c(F)cc(C)cc2F)c[nH]c2nncc1-2
Cabozantinib = compound: COc1cc2nccc(Oc3ccc(NC(=O)C4(C(=O)Nc5ccc(F)cc5)CC4)cc3)c2cc1OC [Cabozantinib]
Saracatinib/AZD0530 = compound: CN1CCN(CCOc2cc(OC3CCOCC3)c3c(Nc4c(Cl)ccc5c4OCO5)ncnc3c2)CC1 [Saracatinib/AZD0530]
THZ-P1-2 = compound: CN(C)C/C=C/C(=O)NC1=CC=C(C=C1)C(=O)NC2=CC=CC(=C2)NC3=NC=NC(=C3)C4=CNC5=CC=CC=C54 [THZ-P1-2]
[3] = compound: COc1ccc2c(c1)[C@]1(C[C@H]1c1ccc3c(/C=C/c4ccc(CN5C[C@@H](C)O[C@@H](C)C5)cc4)n[nH]c3c1)C(=O)N2
ABT-737 = compound: CN(C)CC[C@H](CSc1ccccc1)Nc1ccc(S(=O)(=O)NC(=O)c2ccc(N3CCN(Cc4ccccc4-c4ccc(Cl)cc4)CC3)cc2)cc1[N+](=O)[O-] [ABT-737]
Olaparib/AZD2281 = compound: O=C(c1cc(Cc2n[nH]c(=O)c3ccccc23)ccc1F)N1CCN(C(=O)C2CC2)CC1 [Olaparib/AZD2281]
AZD1775 = compound: C=CCn1c(=O)c2cnc(Nc3ccc(N4CCN(C)CC4)cc3)nc2n1-c1cccc(C(C)(C)O)n1 [AZD1775]
Vorinostat = compound: O=C(CCCCCCC(=O)Nc1ccccc1)NO [Vorinostat]
[4] = compound: CNc1nc(-c2ccc3c(N)n[nH]c3c2)cc(N2C[C@@H](C(=O)NC3CCCCC3)CC[C@H]2C)n1
Tivantinib/ARQ197 = compound: O=C1NC(=O)[C@@H](c2cn3c4c(cccc24)CCC3)[C@@H]1c1c[nH]c2ccccc12 [Tivantinib/ARQ197]
[5] = compound: CC(=O)Nc1cccc(-n2c(=O)n(C3CC3)c(=O)c3c(Nc4ccc(I)cc4F)n(C)c(=O)c(C)c32)c1
Ipatasertib/GDC0068 = compound: CC(C)NC[C@@H](C(=O)N1CCN(c2ncnc3c2[C@H](C)C[C@H]3O)CC1)c1ccc(Cl)cc1 [Ipatasertib/GDC0068]
TGX221 = compound: CC1=CN2C(=O)C=C(N=C2C(=C1)C(C)NC3=CC=CC=C3)N4CCOCC4 [TGX221]
SHP099 = compound: CC1(CCN(CC1)C2=CN=C(C(=N2)N)C3=C(C(=CC=C3)Cl)Cl)N [SHP099]
Cediranib/AZD2171 = compound: COc1cc2c(Oc3ccc4[nH]c(C)cc4c3F)ncnc2cc1OCCCN1CCCC1 [Cediranib/AZD2171]
Torin2 = compound: C1=CC(=CC(=C1)N2C(=O)C=CC3=CN=C4C=CC(=CC4=C32)C5=CN=C(C=C5)N)C(F)(F)F [Torin2]
[6] = compound: CC(=O)c1c(C)c2cnc(Nc3ccc(N4CCNCC4)cn3)nc2n(C2CCCC2)c1=O
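Further: breast cancer and non-malignant breast epithelial cell lines, Deep Dye Drop or Dye Drop imaging, nine half-log doses, GR normalized to time-zero plates and DMSO-only controls.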

Cell Line | GR50, 72 h (Volasertib/BI6727) [µM] | GR50, 72 h (Buparlisib/NVP-BKM120) [µM] | GR50, 72 h (BSJ-01-175) [µM] | GR50, 72 h (Alpelisib/BYL719) [µM] | GR50, 72 h (AZD6738) [µM] | GR50, 72 h (INK128/MLN0128) [µM] | GR50, 72 h [1] [µM] | GR50, 72 h (AZD2014) [µM] | GR50, 72 h (AZD7762) [µM] | GR50, 72 h (Taselisib/GDC0032) [µM] | GR50, 72 h (Rucaparib) [µM] | GR50, 72 h (senexin b) [µM] | GR50, 72 h (THZ531) [µM] | GR50, 72 h (THZ1) [µM] | GR50, 72 h (Luminespib/NVP-AUY922) [µM] | GR50, 72 h (Dasatinib) [µM] | GR50, 72 h [2] [µM] | GR50, 72 h (Cabozantinib) [µM] | GR50, 72 h (Saracatinib/AZD0530) [µM] | GR50, 72 h (THZ-P1-2) [µM] | GR50, 72 h [3] [µM] | GR50, 72 h (ABT-737) [µM] | GR50, 72 h (Olaparib/AZD2281) [µM] | GR50, 72 h (AZD1775) [µM] | GR50, 72 h (Vorinostat) [µM] | GR50, 72 h [4] [µM] | GR50, 72 h (Tivantinib/ARQ197) [µM] | GR50, 72 h [5] [µM] | GR50, 72 h (Ipatasertib/GDC0068) [µM] | GR50, 72 h (TGX221) [µM] | GR50, 72 h (SHP099) [µM] | GR50, 72 h (Cediranib/AZD2171) [µM] | GR50, 72 h (Torin2) [µM] | GR50, 72 h [6] [µM]
MCF10A | 0.0221 | 1.47 | 1.46 | > 10 | 9.08 | 0.0242 | 0.34 | 0.473 | 1.81 | 0.119 | > 10 | > 10 | 0.358 | 0.0723 | 0.00762 | 0.709 | 0.504 | > 10 | 4.83 | 7 | 0.00588 | > 10 | > 10 | 6.21 | 2.53 | > 10 | 0.181 | 0.00336 | > 10 | > 10 | > 10 | 9.75 | 0.032 | 1.95
PDXHCI002 | 0.00369 | 1.44 | 0.00607 | > 10 | > 10 | 0.169 | 0.0484 | 9.69 | 0.0705 | 0.6 | > 10 | > 10 | 0.0493 | 0.0115 | 0.00439 | 0.509 | 3.29 | 7.21 | 0.0805 | > 10 | 0.00689 | 5.62 | 3.93 | 0.23 | 0.282 | > 10 | 0.238 | > 1 | > 10 | > 10 | > 10 | 1.47 | 0.123 | 0.127
